Like-named read-outs stand apart in the source and are kept apart here.
Assays:
[1] = system: adipocytes humains matures; assay: Lipolysis: glycerol released by mature adipocytes (AdipoLyze Detection Assay); type: cell-based; settings: Adipocyte, read-out: augmentation de la quantité de glycérol secrété par les adipocytes
Excerpt: Les préadipocytes primaires sous-cutanés humains fournis par Lonza ont été mis en culture (10 000 cellules/puits dans des plaques de 96 puits) dans un milieu de croissance (PGM-2, Lonza, PT-9502) pendant une nuit. A J1, les cellules ont été mises dans le milieu de différenciation pendant 12 jours pour acquérir les caractéristiques des adipocytes matures. […]

Sirt1 = target: T1, Sirt1 (Homo sapiens, UniProt Q96EB6); assay: HTRF SIRT1 Assay (Cisbio): enzymatic activity of purified Sirt1; type: biochemical; settings: 0.5 h; at about 2,5 µM (1 µg/ml); vs enzyme without compound; read-out: % d'augmentation de l'activité de Sirt1
T1 construct: purchased Cisbio
T1 sequence (Q96EB6 1-747): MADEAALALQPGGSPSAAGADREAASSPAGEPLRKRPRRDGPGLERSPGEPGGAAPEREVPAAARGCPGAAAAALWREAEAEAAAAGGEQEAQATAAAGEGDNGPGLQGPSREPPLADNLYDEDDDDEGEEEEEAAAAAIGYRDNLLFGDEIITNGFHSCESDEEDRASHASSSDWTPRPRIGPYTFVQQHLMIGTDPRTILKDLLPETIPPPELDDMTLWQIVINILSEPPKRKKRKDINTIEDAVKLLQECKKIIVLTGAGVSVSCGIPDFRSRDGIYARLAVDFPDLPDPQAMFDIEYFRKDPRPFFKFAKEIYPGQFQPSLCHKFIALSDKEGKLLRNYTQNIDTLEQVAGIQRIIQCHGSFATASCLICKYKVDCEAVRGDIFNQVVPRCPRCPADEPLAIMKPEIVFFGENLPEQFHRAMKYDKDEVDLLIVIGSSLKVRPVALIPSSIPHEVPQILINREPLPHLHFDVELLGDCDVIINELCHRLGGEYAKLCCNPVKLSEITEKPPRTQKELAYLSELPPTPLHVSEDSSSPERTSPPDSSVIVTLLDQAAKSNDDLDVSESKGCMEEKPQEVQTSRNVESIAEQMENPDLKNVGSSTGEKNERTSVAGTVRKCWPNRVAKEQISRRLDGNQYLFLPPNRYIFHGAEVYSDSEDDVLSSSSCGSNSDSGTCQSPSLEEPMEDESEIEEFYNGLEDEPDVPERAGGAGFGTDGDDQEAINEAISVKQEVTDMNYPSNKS
Protocol: L'activité enzymatique de Sirt1 a été évaluée à l'aide du kit «HTRF^R SIRT1 Assay » vendu par la Société Cisbio. Lors de ces expériences, l'enzyme purifiée a été incubée à température ambiante en présence du NAD (cofacteur) de son substrat acétylé et du composé à tester utilisé aux concentrations variant de 0,24 µM à 280 µM. « SIRT1 Activator 3 », un activateur commercial de Sirt1 a été utilisé comme un contrôle positif. Après 30 min d'incubation, la réaction enzymatique est arrêtée et la quantité de substrat acétylé restante est évaluée à l'aide d'un anticorps spécifique.
Une augmentation de l'activité enzymatique de Sirt1 en présence des composés décrits s'est traduite par une diminution de la quantité d'anticorps capable de se fixer sur le substrat et donc par une diminution de l'émission de fluorescence qui en résulte, comparé à la valeur obtenue avec l'enzyme seule. Les résultats sont exprimés en % d'augmentation de l'activité de Sirt1 par rapport à celle obtenue avec l'enzyme sans ajout des composés.

[2] = 50 µM, mature adipocytes treated 72h, culture supernatant

| Structure (SMILES) | activation at 50 µM [1, 2] [%] | activation at 2.5 µM (Sirt1) [%] | activation at 50 µM ([1]; 72 h) [%] |
| --- | --- | --- | --- |
| CC(=O)N[C@H]1CC[C@@]2(C)C(=CC[C@H]3[C@@H]4CC[C@H]([C@H](C)NC(C)=O)[C@@]4(COC(C)=O)CC[C@@H]32)C1 (single isomer, unassigned; diac) [C3, Acétatede 3 β, 20 α-diacétamido-pregn-5-en-18-ol] | 18 |  |  |
| C[C@@H]([C@H]1CC[C@H]2[C@@H]3CC[C@H]4C[C@@H](O)CC[C@]4(C)[C@H]3CC[C@]12C)N(C)C [C1, 20-(diméthylamino)-, (3β,5α,20S)-pregnan-3-ol] |  | > 50 | 44 |
| CC(=O)N(C)[C@H]1CC[C@@]2(C)[C@@H](CC[C@@H]3[C@@H]2CC[C@]2(C)[C@@H]([C@H](C)N(C)C)CC[C@@H]32)C1 [C2, N-[(3 β, 5 α, 20S)-20-(diméthylamino)pregnan-3-yl]-N-méthyl-acétamide] | 24 |  |  |
| CC(=O)N(C)[C@H]1CC[C@@]2(C)C(=C[C@H](O)[C@H]3[C@@H]4CC[C@@H]5[C@H](C)OC(=O)[C@@]54CC[C@@H]32)C1 [C4, Acide 3-(acétylméthylamino)-7,20-dihydroxy-, γ-lactone, (3 β, 7 β ,20S)-pregn-5-èn-18-oïque] | 10 | > 50 |  |
| CC(=O)N(C)[C@H]1CC[C@@]2(C)C(=CC(=O)[C@H]3[C@@H]4CC[C@@H]5[C@H](C)OC(=O)[C@@]54CC[C@@H]32)C1 [C5, Acide 20 α-hydroxy-3 β-(N-méthylacétamido)-7-oxo-, γ-lactone pregn-5-èn-18-oïque] | 14 |  |  |
| CC(=O)N(C)[C@H]1CC[C@@]2(C)C(=CC[C@H]3[C@@H]4CC[C@@H]5[C@H](C)N(C(C)=O)C[C@@]54CC[C@@H]32)C1 [C6, N-acétyl-3 β-(N-méthylacétamido)-norcon-5-énine] | 41 | > 50 |  |
